Experimental data reported in EP2966448B1, “METHOD FOR THE PREDICTION OR PROGNOSIS OF THE RESPONSE OF A HUMAN SUBJECT SUFFERING FROM CANCER TO TREATMENT WITH AN ANTAGONIST OF THE NK1 RECEPTOR” (priority 2013, dated 2014).
Read-outs that look alike come from different tables or passages of the source.

Experiments:
[1] = tested on: Melanoma (Nodular Melanoma); experiment: Inhibition of primary tumor cell cultures vs Kras mutation (Example 2); format: cell-based, human; details: Homo sapiens, 100 micromolar, read-out: Percentage of inhibition of cell cultures
Description: (§1) Cell cultures. To obtain tumor cells from human primary tumors we used the method described in De Bari et al. (De Bari et al. 2001). Briefly, small pieces of the tumors were digested into a hyaluronidase solution (Sigma-Aldrich, USA) at a concentration of 1 mg/ml during 15 minutes at 37°C, and then they were treated with 6 mg/ml of collagenase type IV (Invitrogen) during 2 hours at 37°C. Consecutively, cells were washed, and resuspended in the DMEM culture medium with high concentration of glucose (Dulbecco's Modified Eagle's Medium, Invitrogen) supplemented with 1% of antibiotics-antimycotics (Invitrogen) and with 1% of sodium pyruvate (Invitrogen), and the cells were seeded in culture slides at a concentration of 10.000 cells per square centimeter. When cells reached confluence, the adherent cells were separated using sterile trypsin at 0,5% (Invitrogen) and they were used among passages 3 and 9. For the assays shown next, tumor cells were seeded on slides at a concentration of 25.000 cells per well. A total of 6 wells containing the tumor cells were used as survival control. […] All the cultures were kept during 48 hours and later on recollected for their analysis.
(§2) In each case the presence or not of mutations in K-ras gene was determined.
(§3) To determine the existence of mutations in the K-ras gene DNA from cancer tumor cells was extracted from samples obtained from the different cancer tumor cells, using DNA extraction kits from Takara (Madison, WI, US) or Ambion (Huntingdon, Cambridgeshire, United Kingdom), following the manufacturer's instructions, and as it has been previously published (Di Fiore F, et al. 2007). Consecutively it was analyzed by sequencing the exon 2 of the KRAS gene, , by means of PCR amplification from previously extracted cancer tumor DNA, using the following sense primer (SEQ ID NO. 15): 5'-[sequence]-3' and anti-sense primer (SEQ ID NO. 16): 5'-[sequence]-3'. After the purification using the Qiagen extraction kit, the PCR products were sequenced using the Big Dye Terminator Kit V3.1 (Applied Biosystems, Foster City, CA, U.S.) and an ABI Prism 377 or 3100 DNA sequencer (Applied Biosystems). The presence of a heterozygous mutation in the KRAS gene in cancer tumor cells of the cultures was defined as the appearance of a mutant peak of a height of at least a third of the wild type. All the sequence analysis were executed at least twice in two independent PCR.
(§4) The percentages of inhibition are expressed in percentage of variation in relation to control ± standard deviation.

[2] = tested on: Pancreatic carcinoma (Adenocarcinoma); experiment: as above; format: cell-based, human; details: Homo sapiens, 100 micromolar, read-out: Percentage of inhibition of cell cultures
Description: (§5) Cell cultures. […] Briefly, small pieces of the tumors were digested into a hyaluronidase solution (Sigma-Aldrich, USA) at a concentration of 1 mg/ml during 15 minutes at 37°C, and then they were treated with 6 mg/ml of collagenase type IV (Invitrogen) during 2 hours at 37°C. Consecutively, cells were washed, and resuspended in the DMEM culture medium with high concentration of glucose (Dulbecco's Modified Eagle's Medium, Invitrogen) supplemented with 1% of antibiotics-antimycotics (Invitrogen) and with 1% of sodium pyruvate (Invitrogen), and the cells were seeded in culture slides at a concentration of 10.000 cells per square centimeter. When cells reached confluence, the adherent cells were separated using sterile trypsin at 0,5% (Invitrogen) and they were used among passages 3 and 9. For the assays shown next, tumor cells were seeded on slides at a concentration of 25.000 cells per well. A total of 6 wells containing the tumor cells were used as survival control. […] All the cultures were kept during 48 hours and later on recollected for their analysis.
as §2, §3
(§6) The antibody against NK1 receptor (Table 16) was used at 1/50 concentration. The percentages of inhibition are expressed in percentage of variation in relation to control ± standard deviation.

[3] = tested on: Ovarian carcinoma (Adenocarcinoma); experiment: as above; format: cell-based, human; details: Homo sapiens, 100 micromolar, read-out: Percentage of inhibition of cell cultures
Description: as §5, §2, §3, §6

Non Hodgkin Lymphoma B = experiment: Inhibition of primary tumor cell cultures (48 hours) vs NK1 receptor immunostaining (Example 1); format: cell-based; details: Homo sapiens, 1 micromolar, read-out: Percentage of inhibition of cell cultures
Description: as §1
(§7) Immunohistochemistry techniques. The presence of NK1 receptors was also analyzed using immunohistochemistry techniques. Briefly, a sample of each of the cultures of the cell lines used in the present invention, was centrifuged (5 minutes at 1.500 rpm) and the pellet obtained was dehydrated using increasing concentrations of ethanol and, finally, xylol. Then, said dehydrated samples were embedded in paraffin, creating a block of cells. Such paraffin blocks were cut with a microtome at 5 microns thickness, and were placed on microscope slides adequate to perform immunohistochemistry techniques. Consecutively, they were de-paraffinized by immersing them in xylol, to be finally hydrated using a solution containing decreasing concentrations of ethanol, and finally submerged them into water. […] After this, the samples were left to cool down at room temperature for 10 minutes. The endogenous peroxidase activity was blocked with 3% peroxide of hydrogen for 30 minutes at room temperature. After washing the samples with 0.05 M of Tris buffer, they were incubated with 10% non-immune pork serum at for 30 minutes at room temperature. To analyze the expression of NK1 receptors, the cellular samples were incubated in the presence of anti-NK1 antibodies (S8305, Sigma-Aldrich) diluted 1:1000, overnight at 4°C. Afterwards, the samples were washed in Tris buffer 0.05 M at room temperature. The next step was the addition of Envision System-HRP (Dako) reagents for 30 minutes at room temperature. Then, the samples were washed again in Tris buffer 0.05 M and the immunoreactivity was visualized through light microscopy with a chromogenic solution containing 3,3'-Diaminobenzidine (DAB+; Dako, USA). To differentiate the cell nuclei, they were slightly stained with hematoxylin. As negative control, it was used samples not incubated with the primary antibody anti-NK1, which was replaced by non-immune serum. All the samples were evaluated.
(§8) To value the immunostaining in each of the cases six cuts were performed to be analyzed by the immunohistochemistry technique. In each of the six cuts, it was counted cells in 20 fields (magnification 400x) using an Olympus microscope (model CX31). In each field it was counted the total number of cells and the number of cells presenting immunostaining, calculating afterwards the percentage of cells which presented immunostaining.

Endometrium carcinoma = experiment: Inhibition of primary tumor cell cultures vs Kras mutation (Example 2); format: cell-based, human; details: Homo sapiens, 100 micromolar, read-out: Percentage of inhibition of cell cultures
Description: as §5, §2, §3, §6

Hodgkin lymphoma = experiment: Inhibition of primary tumor cell cultures (48 hours) vs NK1 receptor immunostaining (Example 1); format: cell-based; details: Homo sapiens, 1 micromolar, read-out: Percentage of inhibition of cell cultures
Description: as §1, §7, §8

[4] = tested on: Lung carcinoma (non small cell lung carcinoma); experiment: Inhibition of primary tumor cell cultures vs Kras mutation (Example 2); format: cell-based, human; details: Homo sapiens, 100 micromolar, read-out: Percentage of inhibition of cell cultures
Description: (§9) To obtain tumor cells from human primary tumors we used the method described in De Bari et al. (De Bari et al. 2001). Briefly, small pieces of the tumors were digested into a hyaluronidase solution (Sigma-Aldrich, USA) at a concentration of 1 mg/ml during 15 minutes at 37°C, and then they were treated with 6 mg/ml of collagenase type IV (Invitrogen) during 2 hours at 37°C. Consecutively, cells were washed, and resuspended in the DMEM culture medium with high concentration of glucose (Dulbecco's Modified Eagle's Medium, Invitrogen) supplemented with 1% of antibiotics-antimycotics (Invitrogen) and with 1% of sodium pyruvate (Invitrogen), and the cells were seeded in culture slides at a concentration of 10.000 cells per square centimeter. When cells reached confluence, the adherent cells were separated using sterile trypsin at 0,5% (Invitrogen) and they were used among passages 3 and 9. For the assays shown next, tumor cells were seeded on slides at a concentration of 25.000 cells per well. A total of 6 wells containing the tumor cells were used as survival control. […] All the cultures were kept during 48 hours and later on recollected for their analysis.
as §2, §3, §6

Neuroblastoma = experiment: Inhibition of primary tumor cell cultures (48 hours) vs NK1 receptor immunostaining (Example 1); format: cell-based; details: Homo sapiens, 1 micromolar, read-out: Percentage of inhibition of cell cultures
Description: as §1, §7, §8

[5] = tested on: Carcinoma of the uterine cervix; experiment: as above; format: cell-based; details: Homo sapiens, 1 micromolar, read-out: Percentage of inhibition of cell cultures
Description: as §1, §7, §8

Fibrosarcoma = experiment: as above; format: cell-based; details: Homo sapiens, 1 micromolar, read-out: Percentage of inhibition of cell cultures
Description: as §1, §7, §8

[6] = tested on: Urinary bladder carcinoma (transitional cell carcinoma); experiment: Inhibition of primary tumor cell cultures vs Kras mutation (Example 2); format: cell-based, human; details: Homo sapiens, 100 micromolar, read-out: Percentage of inhibition of cell cultures
Description: as §9, §2, §3, §6

Breast carcinoma = experiment: Inhibition of primary tumor cell cultures (48 hours) vs NK1 receptor immunostaining (Example 1); format: cell-based; details: Homo sapiens, 1 micromolar, read-out: Percentage of inhibition of cell cultures
Description: as §1, §7, §8

[7] = tested on: Undifferentiated Pleomorphic Sarcoma (malignant fibrous histiocytoma grade 3); experiment: Inhibition of primary tumor cell cultures vs Kras mutation (Example 2); format: cell-based, human; details: Homo sapiens, 100 micromolar, read-out: Percentage of inhibition of cell cultures
Description: as §1, §2, §3, §4

Burkitt Lymphoma [8] = experiment: Inhibition of primary tumor cell cultures (48 hours) vs NK1 receptor immunostaining (Example 1); format: cell-based; details: Homo sapiens, 1 micromolar, read-out: Percentage of inhibition of cell cultures
Description: as §1, §7, §8

Burkitt Lymphoma [9] = experiment: Inhibition of primary tumor cell cultures vs Kras mutation (Example 2); format: cell-based, human; details: Homo sapiens, Cases with Kras mutated; 100 micromolar; read-out: Percentage of inhibition of cell cultures
[10] = Cases with Kras non-mutated (wild type)
[11] = NK1 receptor immunostaining Group 1 (less than 20% of the cells)
[12] = NK1 receptor immunostaining Group 2 (20-80% of the cells)
[13] = NK1 receptor immunostaining Group 3 (more than 80% of the cells)
[14] = NK1 receptor immunostaining Intensity grade 1
[15] = NK1 receptor immunostaining Intensity grade 2
[16] = NK1 receptor immunostaining Intensity grade 3

CC(=O)N1CCN([C@H]2CCN(C(=O)N(C)[C@H](C)c3cc(C(F)(F)F)cc(C(F)(F)F)c3)[C@@H](c3ccc(F)cc3C)C2)CC1 [Casopitant]
inhibition at 100 µM ([1]; Cases with Kras mutated): 25 ± 6%
inhibition at 100 µM [1, 10]: 94 ± 6%
inhibition at 100 µM ([2]; Cases with Kras mutated): 27 ± 3%
inhibition at 100 µM [2, 10]: 93 ± 4%
inhibition at 100 µM ([3]; Cases with Kras mutated): 29 ± 4%
inhibition at 100 µM [3, 10]: 97 ± 6%
inhibition at 1 µM (Non Hodgkin Lymphoma B; [11]): 15 ± 3%
inhibition at 1 µM (Non Hodgkin Lymphoma B; [12]): 46 ± 5%
inhibition at 1 µM (Non Hodgkin Lymphoma B; [13]): 94 ± 4%
inhibition at 1 µM (Non Hodgkin Lymphoma B; [14]): 32 ± 3%
inhibition at 1 µM (Non Hodgkin Lymphoma B; [15]): 55 ± 5%
inhibition at 1 µM (Non Hodgkin Lymphoma B; [16]): 94 ± 4%
inhibition at 100 µM (Endometrium carcinoma; Cases with Kras mutated): 28 ± 2%
inhibition at 100 µM (Endometrium carcinoma; [10]): 94 ± 4%
inhibition at 1 µM (Hodgkin lymphoma; [11]): 15 ± 2%
inhibition at 1 µM (Hodgkin lymphoma; [12]): 47 ± 4%
inhibition at 1 µM (Hodgkin lymphoma; [13]): 95 ± 4%
inhibition at 1 µM (Hodgkin lymphoma; [14]): 34 ± 5%
inhibition at 1 µM (Hodgkin lymphoma; [15]): 54 ± 4%
inhibition at 1 µM (Hodgkin lymphoma; [16]): 92 ± 4%
inhibition at 100 µM ([4]; Cases with Kras mutated): 25 ± 5%
inhibition at 100 µM [4, 10]: 95 ± 5%
inhibition at 1 µM (Neuroblastoma; [11]): 16 ± 2%
inhibition at 1 µM (Neuroblastoma; [12]): 45 ± 4%
inhibition at 1 µM (Neuroblastoma; [13]): 94 ± 4%
inhibition at 1 µM (Neuroblastoma; [14]): 35 ± 4%
inhibition at 1 µM (Neuroblastoma; [15]): 55 ± 5%
inhibition at 1 µM (Neuroblastoma; [16]): 94 ± 4%
inhibition at 1 µM [5, 11]: 16 ± 3%
inhibition at 1 µM [5, 12]: 47 ± 4%
inhibition at 1 µM [5, 13]: 93 ± 3%
inhibition at 1 µM [5, 14]: 33 ± 3%
inhibition at 1 µM [5, 15]: 53 ± 3%
inhibition at 1 µM [5, 16]: 92 ± 2%
inhibition at 1 µM (Fibrosarcoma; [11]): 15 ± 2%
inhibition at 1 µM (Fibrosarcoma; [12]): 47 ± 5%
inhibition at 1 µM (Fibrosarcoma; [13]): 93 ± 4%
inhibition at 1 µM (Fibrosarcoma; [14]): 35 ± 6%
inhibition at 1 µM (Fibrosarcoma; [15]): 55 ± 3%
inhibition at 1 µM (Fibrosarcoma; [16]): 92 ± 4%
inhibition at 100 µM ([6]; Cases with Kras mutated): 25 ± 4%
inhibition at 100 µM [6, 10]: 95 ± 6%
inhibition at 1 µM (Breast carcinoma; [11]): 15 ± 3%
inhibition at 1 µM (Breast carcinoma; [12]): 47 ± 4%
inhibition at 1 µM (Breast carcinoma; [13]): 92 ± 3%
inhibition at 1 µM (Breast carcinoma; [14]): 35 ± 3%
inhibition at 1 µM (Breast carcinoma; [15]): 56 ± 6%
inhibition at 1 µM (Breast carcinoma; [16]): 92 ± 2%
inhibition at 100 µM ([7]; Cases with Kras mutated): 26 ± 5%
inhibition at 100 µM [7, 10]: 95 ± 5%
inhibition at 1 µM (Burkitt Lymphoma [8]; [11]): 15 ± 3%
inhibition at 1 µM (Burkitt Lymphoma [8]; [12]): 46 ± 5%
inhibition at 1 µM (Burkitt Lymphoma [8]; [13]): 94 ± 5%
inhibition at 1 µM (Burkitt Lymphoma [8]; [14]): 37 ± 5%
inhibition at 1 µM (Burkitt Lymphoma [8]; [15]): 55 ± 3%
inhibition at 1 µM (Burkitt Lymphoma [8]; [16]): 93 ± 3%
inhibition at 100 µM (Burkitt Lymphoma [9]): 25 ± 2%
